Values quoted from earlier work as cited in paper PMC8231113, “Protein Secondary Structure Affects Glycan Clustering in Native Mass Spectrometry” (Life, 2021).

Experiments:
[1] = biological target: wildtype GII.4 Saga P dimer; conditions: read-out: KD, result from NMR; cited from earlier work
[2] = test system: deamidated GII.4 Saga P dimer; design: method as in PMID 30899001, PMID 30071731; conditions: NMR and HDX MS; cited from earlier work
[3] = test system: hNoV P dimers; design: method as in PMID 22170811, PMID 30899001; conditions: cited from earlier work

| Compound | Kd [1] [mM] | reduction of glycan binding affinity of deamidated P dimer compared to the wildtype [2] | binding to hNoV [3] |
| --- | --- | --- | --- |
| C[C@@H]1O[C@@H](O[C@H]2C(O)O[C@H](CO)[C@H](O)[C@@H]2O[C@H]2O[C@H](CO)[C@H](O)[C@H](O)[C@H]2O)[C@@H](O)[C@H](O)[C@@H]1O (some centres unmarked) [B trisaccharide] | 6.7 | roughly by an order of magnitude |  |
| O=C[C@@H](O)[C@H](O)[C@H](O)[C@@H](O)CO [L-galactose] |  |  | known not to bind |
| C[C@H](O)[C@@H](O)[C@@H](O)[C@H](O)C=O [fucose] | 22 | roughly by an order of magnitude |  |
